This assay concerns the target recombinant IL4I1 (Homo sapiens (Human), UniProt Q96RQ9). The assay is described as follows: IL4I1 Enzymatic Assay (Amplex Red/HRP coupled fluorescence detection of H2O2). The note with it: 240 min; recombinant IL4I1, four-hour pre-incubation with compound. The format is biochemical. A digest of the protocol: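 Ten-point, 1:3 compound titrations were fitted by four-parameter sigmoidal regression to give EC50. Resorufin fluorescence (544/590 nm) from Amplex Red/HRP-coupled H2O2 detection was read 120 min after adding 1 mM each aromatic amino acid to 1 nM IL4I1, following a 4 h compound pre-incubation in pH 7.0 Hepes buffer.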

Chain of recombinant IL4I1 (Q96RQ9 22-567): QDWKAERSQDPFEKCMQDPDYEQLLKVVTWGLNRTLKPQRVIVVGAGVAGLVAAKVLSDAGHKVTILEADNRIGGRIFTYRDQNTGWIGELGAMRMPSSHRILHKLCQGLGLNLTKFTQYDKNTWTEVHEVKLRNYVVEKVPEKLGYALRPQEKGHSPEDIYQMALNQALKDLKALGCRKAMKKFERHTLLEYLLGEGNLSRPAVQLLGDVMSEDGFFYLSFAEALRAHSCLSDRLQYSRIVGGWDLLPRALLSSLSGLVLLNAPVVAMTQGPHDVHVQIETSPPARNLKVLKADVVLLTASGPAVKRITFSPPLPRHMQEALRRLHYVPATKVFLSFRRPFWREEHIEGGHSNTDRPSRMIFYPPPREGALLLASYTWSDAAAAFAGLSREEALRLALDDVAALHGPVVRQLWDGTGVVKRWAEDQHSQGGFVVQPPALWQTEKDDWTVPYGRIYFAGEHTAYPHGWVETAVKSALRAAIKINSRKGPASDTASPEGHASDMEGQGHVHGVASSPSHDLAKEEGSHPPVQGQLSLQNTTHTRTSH

With `O=C1C(=O)N(C2CCC2)CCN1Cc1ccc(-n2nccn2)nc1` [Example 113, 1-((6-(2H-1,2,3-triazol-2-yl)pyridin-3-yl)methyl)-4-cyclobutylpiperazine-2,3-dione], the EC50 came to 15 nM.

For the compound `O=C1C(=O)N(C23CC(C2)C3)CCN1Cc1ccc(-c2ccccc2)cn1` [Example 114, 1-(bicyclo[1.1.1]pentan-1-yl)-4-((5-phenylpyridin-2-yl)methyl)piperazine-2,3-dione], the EC50 is 7 nM.

Turning to `O=c1c(=O)n(C23CC(C2)C3)ccn1Cc1ccc(-c2ccccc2)cn1` [Example 115, 1-(bicyclo[1.1.1]pentan-1-yl)-4-((5-phenylpyridin-2-yl)methyl)-1,4-dihydropyrazine-2,3-dione], the EC50 was found to be 4 nM.

On to `O=C1C(=O)N(C23CC(C2)C3)CCN1Cc1ccc(-n2nccn2)nc1` [Example 116, 1-((6-(2H-1,2,3-triazol-2-yl)pyridin-3-yl)methyl)-4-(bicyclo[1.1.1]pentan-1-yl)piperazine-2,3-dione], for which the EC50 came to 17 nM.

Regarding `O=C1C(=O)N(C23CC(C2)C3)CCN1Cc1ccc(-n2ccnn2)nc1` [Example 117, 1-((6-(1H-1,2,3-triazol-1-yl)pyridin-3-yl)methyl)-4-(bicyclo[1.1.1]pentan-1-yl)piperazine-2,3-dione], the EC50 amounted to 14 nM.

Regarding `O=C1C(=O)N(C2CCC2)CCN1Cc1cnc(-c2ccccc2)cn1` [Example 118, 1-cyclobutyl-4-((5-phenylpyrazin-2-yl)methyl)piperazine-2,3-dione], the EC50 came to 7 nM.

For `O=C1C(=O)N(C2CCCC2)CCN1CCc1cc(-c2ccccc2)on1` [Example 119, 1-cyclopentyl-4-(2-(5-phenylisoxazol-3-yl)ethyl)piperazine-2,3-dione], the EC50 was found to be 4 nM.

With `O=c1c(=O)n(C23CC(C2)C3)ccn1Cc1nnc(-c2ccccc2)s1` [Example 120, 1-(bicyclo[1.1.1]pentan-1-yl)-4-((5-phenyl-1,3,4-thiadiazol-2-yl)methyl)-1,4-dihydropyrazine-2,3-dione], the EC50 amounted to 3 nM.

Turning to `O=C1C(=O)N(C23CC(C2)C3)CCN1Cc1nnc(-c2ccccc2)s1` [Example 121, 1-(bicyclo[1.1.1]pentan-1-yl)-4-((5-phenyl-1,3,4-thiadiazol-2-yl)methyl)piperazine-2,3-dione], the EC50 is 7 nM.

As for `O=C1C(=O)N(C23CC(C2)C3)CCN1Cc1ccc(-c2ccccc2)nc1` [Example 122, 1-(bicyclo[1.1.1]pentan-1-yl)-4-((6-phenylpyridin-3-yl)methyl)piperazine-2,3-dione], the EC50 turned out to be 6 nM.

With `O=C1C(=O)N(C2CCC2)CCN1Cc1cnc(-c2ccccc2)c(F)c1` [Example 123, 1-cyclobutyl-4-((5-fluoro-6-phenylpyridin-3-yl)methyl)piperazine-2,3-dione], the EC50 came to 5 nM.

Take `O=c1c(=O)n(C2CCCC2)ccn1Cc1nnc(-c2ccccc2)s1` [Example 124, 1-cyclopentyl-4-((5-phenyl-1,3,4-thiadiazol-2-yl)methyl)-1,4-dihydropyrazine-2,3-dione]: the EC50 was 7 nM.

In the case of `O=c1c(=O)n([C@H]2C[C@H]3C[C@H]3C2)ccn1Cc1cnc(-c2ccccc2)cn1` [Example 125], the EC50 came to 3 nM.

With `O=c1c(=O)n(C2CCCC2)ccn1Cc1cnc(-c2ccccc2)cn1` [Example 126, 1-cyclopentyl-4-((5-phenylpyrazin-2-yl)methyl)-1,4-dihydropyrazine-2,3-dione], the EC50 came out at 3 nM.

For `O=c1c(=O)n(C2CCC2)ccn1Cc1cnc(-c2ccccc2)cn1` [Example 127, 1-cyclobutyl-4-((5-phenylpyrazin-2-yl)methyl)-1,4-dihydropyrazine-2,3-dione], the EC50 is 3 nM.

In the case of `O=c1c(=O)n([C@H]2C[C@H]3C[C@H]3C2)ccn1Cc1cnc(-c2ccccc2)c(F)c1` [Example 128, 1-((cis)-bicyclo[3.1.0]hexan-3-yl)-4-((5-fluoro-6-phenylpyridin-3-yl)methyl)-1,4-dihydropyrazine-2,3-dione], the EC50 is 2 nM.

Regarding `O=C1C(=O)N([C@H]2C[C@H]3C[C@H]3C2)CCN1Cc1cnc(-c2ccccc2)cn1` [Example 129, 1-((cis)-bicyclo[3.1.0]hexan-3-yl)-4-((5-phenylpyrazin-2-yl)methyl)piperazine-2,3-dione], the EC50 amounted to 6 nM.

With `O=c1c(=O)n(C2CCC2)ccn1Cc1cnc(-c2ccccc2)nc1` [Example 130, 1-cyclobutyl-4-((2-phenylpyrimidin-5-yl)methyl)-1,4-dihydropyrazine-2,3-dione], the EC50 was found to be 5 nM.

For `O=C1C(=O)N([C@H]2C[C@H]3C[C@H]3C2)CCN1Cc1cnc(-c2ccccc2)c(F)c1` [Example 131, 1-((cis)-bicyclo[3.1.0]hexan-3-yl)-4-((5-fluoro-6-phenylpyridin-3-yl)methyl)piperazine-2,3-dione], the concentration for a half-maximal effect (EC50) stood at 9 nM.

Turning to `O=C1C(=O)N(C2CCCC2)CCN1CC12CC(c3ccccc3)(C1)C2` [Example 132, 1-cyclopentyl-4-((3-phenylbicyclo[1.1.1]pentan-1-yl)methyl)piperazine-2,3-dione], the EC50 was 15 nM.

Turning to `O=C1C(=O)N(C2CCC2)CCN1Cc1nnc(-c2ccccc2)s1` [Example 135, 1-cyclobutyl-4-((5-phenyl-1,3,4-thiadiazol-2-yl)methyl)piperazine-2,3-dione], the EC50 was 6 nM.

Consider `O=C1C(=O)N(C2CCC2)CCN1Cc1ccc(-n2nccn2)cn1` [Example 136, 1-((5-(2H-1,2,3-triazol-2-yl)pyridin-2-yl)methyl)-4-cyclobutylpiperazine-2,3-dione], for which the EC50 turned out to be 20 nM.

Take `O=c1c(=O)n(C2CCC2)ccn1Cc1ccc(-c2ccccc2)nn1` [Example 137, 1-cyclobutyl-4-((6-phenylpyridazin-3-yl)methyl)-1,4-dihydropyrazine-2,3-dione]: the EC50 came to 6 nM.

For the compound `O=C1C(=O)N(C2CCC2)CCN1Cc1cc(-c2ccccn2)on1` [Example 138, 1-cyclobutyl-4-((5-(pyridin-2-yl)isoxazol-3-yl)methyl)piperazine-2,3-dione], the EC50 was 12 nM.

For `O=C1C(=O)N(C2CCCC2)CCN1Cc1ncc(-c2nccs2)cc1F` [Example 139, 1-cyclopentyl-4-((3-fluoro-5-(thiazol-2-yl)pyridin-2-yl)methyl)piperazine-2,3-dione], the EC50 came to 26 nM.

Take `O=C1C(=O)N(C2CCCC2)CCN1Cc1ccc(-n2nccn2)cc1` [Example 140, 1-(4-(2H-1,2,3-triazol-2-yl)benzyl)-4-cyclopentylpiperazine-2,3-dione]: the EC50 worked out at 36 nM.

Take `O=C1C(=O)N(C2CC(c3ccccc3)C2)CCN1Cc1ncc(-c2ccccc2)cn1` (centres unmarked) [Example 141, 1-(3-phenylcyclobutyl)-4-((5-phenylpyrimidin-2-yl)methyl)piperazine-2,3-dione]: the EC50 amounted to 23 nM.

Turning to `O=C1C(=O)N(C2CC(c3ccccc3)C2)CCN1Cc1ccc(-c2ccccc2)nc1` (centres unmarked) [Example 142, 1-(3-phenylcyclobutyl)-4-((6-phenylpyridin-3-yl)methyl)piperazine-2,3-dione], the EC50 came to 3 nM.

Consider `O=c1c(=O)n(C2CCC2)ccn1Cc1ncc(-c2ccccc2)cn1` [Example 143, 1-cyclobutyl-4-((5-phenylpyrimidin-2-yl)methyl)-1,4-dihydropyrazine-2,3-dione], for which the EC50 was determined as 15 nM.

(Values after patent US20240246937A1 (MERCK SHARP & DOHME LLC, priority 2021, published 2024).)
